Source: publication PMC9973354 (mBio, 2022)
Several values for one entry are separate records, joined by “and”; a condition that tells them apart may be missing. Equal entries are not always repeated. Starred links: 1 amine or outer side, 2 acyl side, 3 side chain; linkers in the order of their positions; H or OH if unused. Positions of bridges follow the written chain, without caps; N, C: chain ends. Non-standard residues stand in square brackets, D forms with d. Residues, ends and D or L forms follow the SMILES beside them. ξ: configuration not given here. X1 = O=C([C@@H]1CCN=C2C(N[*:1])=Cc3cc(O)c(O)cc3N21)[*:2]; ξOrn(N(OH)CHO) = NC(CCCN(O)C=O)C(=O)O; Suc = O=C(CCC(=O)[*:2])[*:1]; ξK = NCCCCC(N)C(=O)O; ξS = NC(CO)C(=O)O

Key:
FpvB = experiment: Western blot of FLAG-tagged FpvB expression after compound treatment; assay type: cell-based, Pseudomonas aeruginosa; settings: WT PA14 fpvB-FLAG; 10 μg/mL siderophores, 64 μg/mL DSX, 10:90
PA14 ΔpvdA ΔpchA mutant = experiment: Growth curves with DSX and siderophores, ΔpvdA ΔpchA; assay type: cell-based, Pseudomonas aeruginosa; settings: 64 μg/mL DSX + 10 μg/mL siderophore, 20 h
Experimental: Supplementary file : FIG S1 (A) FpvB is expressed in WT PA14 and the ΔfpvA mutant grown in 10:90. PilF was used as a loading control for outer membrane proteins. (B) FpvA is expressed from WT PA14 grown in 10:90. […] PilF was used as a loading control for outer membrane proteins. (C) Growth curves of PA14 and mutants with DSX and different siderophores in 10:90. PA14, ΔfpvA, ΔfpvB, ΔfpvA ΔfpvB, and ΔpvdA ΔpchA strain growth. Blue indicates control, purple indicates treatment with 64 μg/mL DSX, yellow indicates treatment with 10 μg/mL pyoverdine (PA14), and red indicates treatment with 64 μg/mL DSX and 10 μg/mL pyoverdine (PA14). (D) ΔfpvA, ΔfpvA ΔfpvB, and ΔpvdA ΔpchA strain growth. Blue indicates control, purple indicates treatment with 64 μg/mL DSX, grey indicates treatment with 10 μg/mL ferrichrome, and red indicates treatment with 64 μg/mL DSX and 10 μg/mL ferrichrome. (E) ΔfpvA, ΔfpvA ΔfpvB, and ΔpvdA ΔpchA strain growth. […] Download FIG S1, EPS file, 8.5 MB.
As a control, a ΔpvdA ΔpchA mutant unable to make pyoverdine and pyochelin was also tested. Growth of this mutant was inhibited by DSX.

FpvB R191A R648C = biological target: T1, FpvB R191A R648C (Pseudomonas aeruginosa, UniProt A0A0H2ZFZ5, R191A/R648C); experiment: Whole-cell fluorescence quenching, FpvB R191A R648C; assay type: binding; settings: FpvB R191A R648C
T1 sequence (A0A0H2ZFZ5 23-802 R191A/R648C): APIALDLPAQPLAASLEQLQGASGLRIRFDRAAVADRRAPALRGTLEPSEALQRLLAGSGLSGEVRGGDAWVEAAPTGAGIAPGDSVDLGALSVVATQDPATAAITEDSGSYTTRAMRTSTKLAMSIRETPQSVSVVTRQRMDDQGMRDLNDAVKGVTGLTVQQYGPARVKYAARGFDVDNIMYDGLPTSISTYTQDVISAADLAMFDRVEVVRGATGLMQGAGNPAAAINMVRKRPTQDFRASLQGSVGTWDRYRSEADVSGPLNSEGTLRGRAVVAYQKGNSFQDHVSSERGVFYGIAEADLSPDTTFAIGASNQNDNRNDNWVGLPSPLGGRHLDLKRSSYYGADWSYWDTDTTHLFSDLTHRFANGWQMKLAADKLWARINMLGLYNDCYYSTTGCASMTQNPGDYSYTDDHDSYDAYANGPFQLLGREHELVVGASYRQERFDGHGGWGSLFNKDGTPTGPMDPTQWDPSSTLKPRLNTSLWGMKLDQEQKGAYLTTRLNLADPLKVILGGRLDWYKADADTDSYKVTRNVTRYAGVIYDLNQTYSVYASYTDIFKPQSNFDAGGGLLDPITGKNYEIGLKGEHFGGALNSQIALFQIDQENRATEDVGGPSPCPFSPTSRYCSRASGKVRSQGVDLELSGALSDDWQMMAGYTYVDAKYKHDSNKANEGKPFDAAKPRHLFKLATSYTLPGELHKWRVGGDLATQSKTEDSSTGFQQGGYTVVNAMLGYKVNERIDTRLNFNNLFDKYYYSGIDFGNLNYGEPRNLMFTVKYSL
Experimental: Quenching assays with the two xenosiderophores were repeated for the quadruple TBDT mutant expressing WT FpvB, FpvB R191A R648C, or W347V R648C.
Cells were cultured overnight in LB with carbenicillin (200 μg/mL) at 37°C with shaking at 200 rpm. Cells were subcultured (1:200 dilution) in 10:90 plus 2% arabinose for 4 h without carbenicillin at 37°C with shaking at 200 rpm. Cells were harvested by centrifugation for 5 min and 6,000 × g and resuspended in sterile 1× phosphate-buffered saline (PBS) (pH 7.4); 1× PBS was made from a 10× stock (80 g NaCl, 2 g KCl, 26.8 g Na2 HPO4-7H2O, 2.4 g KH2PO4 in 1 L of deionized H2O) with 10 μM Alexa Fluor 594 C5 maleimide for microscopy or fluorescein-5-maleimide for fluorescence quenching and recovery assays and incubated in the dark at room temperature for 30 min on a shaking incubator at 37°C (200 rpm). Excess dye was quenched with 1 mM dithiothreitol (DTT) (Sigma) to stop the reaction. Cells were washed 3× with PBS. For fluorescence recovery assays, cells were incubated with 1× PBS plus 0.4% glucose at 37°C with shaking at 200 rpm. Glucose was prepared as a 20% stock (wt/vol) in 1× PBS and filter sterilized. Cells were spun down and washed 3× with 1× PBS and resuspended in 1× PBS for quenching assays and 1× PBS plus 0.4% glucose for fluorescence recovery assays.
For fluorescence quenching and recovery assays, cells were diluted to an OD600 of 0.1 for both types of assays, and 148 μL was added into wells of a 96-well black plate (Corning). Fluorescence was recorded for 5 min at 1-min intervals at 37°C (BioTek Neo; excitation, 494 nm; emission, 520 nm). After 5 min, 2 μL of each serial dilution for ferrioxamine-Fe^3+, ferrichrome-Fe^3+, and pyoverdine-Fe^3+ or DMSO for vehicle controls was added to each well. Fluorescence was recorded immediately for quenching assays and for 1 h at 1-min intervals for fluorescence recovery assays. Background fluorescence was subtracted from all fluorescence readings and 1-F/F0 was used to calculate the degree of quenching, where F0 is the initial fluorescence. Kd was calculated using GraphPad Prism using a one-site specific binding model or a two-site model. For fluorescence recovery assays, background was subtracted from all fluorescence readings and F/F0 expressed as a percent of control was plotted versus time.

PA14 ΔfpvB ΔfoxA mutants = experiment: Growth phenotypes of deletion mutants, ΔfpvB ΔfoxA; assay type: cell-based, Pseudomonas aeruginosa; settings: 10 μg/mL ferrioxamine B, 10:90
Source text: PA14, ΔfpvA, ΔfpvB, and ΔfpvA ΔfpvB strains treated with TS (A) and DSX (B) in 10:90. Green indicates growth, and white indicates no growth. Growth is expressed as percent of control. The PA14 ΔfpvA ΔfpvB strain complemented with pHERD20T, fpvA, or fpvB treated with TS (C) and DSX (D) in 10:90. […] All experiments are averaged from three independent biological replicates. Blue indicates growth and white indicates no growth. (H) Summary of growth phenotypes of WT PA14 and combinations of single, double, triple, and quadruple deletion mutants in fpvA, fpvB, fiuA, and foxA. […] Green indicates growth, whereas no growth is indicated in white. […] Representative plates are shown.
If there were no transporters for a particular siderophore, the mutant would fail to grow due to iron restriction.

| SMILES | stimulation of FpvB expression (FpvB) | growth with siderophore in the presence of DSX (PA14 ΔpvdA ΔpchA mutant) | affinity (Kd not reached, no saturation at highest concentration) (FpvB R191A R648C) | growth in the presence of compound (PA14 ΔfpvB ΔfoxA mutants) | Kd (FpvB R191A R648C; one-site model, read-out: Kd (converted)) |
| --- | --- | --- | --- | --- | --- |
| NCCCCC(NC(=O)C(CO)NC(=O)[C@@H]1CCN=C2C(NC(=O)CCC(=O)O)=Cc3cc(O)c(O)cc3N21)C(=O)NCC(=O)NC(CCCN(O)C=O)C(=O)NC1CCCCNC(=O)C(CO)NC(=O)C(CCCN(O)C=O)NC1=O (stereo partly shown) [pyoverdine] (Suc-[X1][ξS][ξK]G[ξOrn(N(OH)CHO)][ξK][ξOrn(N(OH)CHO)][ξS]; lactam 6-C) | None of the compounds stimulated expression | restored growth | reduced affinity | – | – |
| CC(=O)N(O)CCCCCNC(=O)CCC(=O)N(O)CCCCCNC(=O)CCC(=O)N(O)CCCCCN [ferrioxamine B] | None of the compounds stimulated expression | rescued growth | – | failed to grow | 535 µM and 480 µM |
